Source: the NIST ThermoML archive (doi:10.1021/je8005369)
Numbers after ± are expanded uncertainties.

Details: Liquid; for mass density: Vibrating Wire Viscometer; for viscosity: Vibrating wire viscometry

CC(C)OC(C)C [diisopropyl ether]
Details | mass density [kg/m3] | viscosity [mPa·s]
243.15 K, 100 kPa | 772.385 ± 1.6 | 0.6191 ± 0.015
243.15 K, 4660 kPa | 776.195 ± 1.6 | 0.6466 ± 0.016
243.15 K, 10070 kPa | 780.42 ± 1.6 | 0.6826 ± 0.016
243.15 K, 15370 kPa | 784.377 ± 1.6 | 0.7177 ± 0.017
243.15 K, 20860 kPa | 788.392 ± 1.6 | 0.7529 ± 0.018
253.15 K, 100 kPa | 762.804 ± 1.6 | 0.5343 ± 0.013
253.15 K, 4720 kPa | 766.842 ± 1.6 | 0.5601 ± 0.014
253.15 K, 9990 kPa | 771.35 ± 1.6 | 0.5898 ± 0.014
253.15 K, 15400 kPa | 775.704 ± 1.6 | 0.6187 ± 0.015
253.15 K, 20740 kPa | 779.692 ± 1.6 | 0.65 ± 0.016
263.15 K, 100 kPa | 753.037 ± 1.6 | 0.4687 ± 0.012
263.15 K, 4470 kPa | 757.298 ± 1.6 | 0.4896 ± 0.012
263.15 K, 9490 kPa | 761.805 ± 1.6 | 0.5141 ± 0.013
263.15 K, 14490 kPa | 766.126 ± 1.6 | 0.5388 ± 0.013
263.15 K, 19640 kPa | 770.142 ± 1.6 | 0.5638 ± 0.014
273.15 K, 100 kPa | 743.309 ± 1.6 | 0.4142 ± 0.011
273.15 K, 4690 kPa | 748.026 ± 1.6 | 0.4344 ± 0.011
273.15 K, 10010 kPa | 753.179 ± 1.6 | 0.4579 ± 0.011
273.15 K, 15290 kPa | 757.99 ± 1.6 | 0.4815 ± 0.012
273.15 K, 20420 kPa | 762.359 ± 1.6 | 0.5042 ± 0.013
283.15 K, 100 kPa | 733.393 ± 1.5 | 0.3689 ± 0.0096
283.15 K, 4700 kPa | 738.525 ± 1.5 | 0.3877 ± 0.01
283.15 K, 10100 kPa | 744.147 ± 1.6 | 0.4088 ± 0.01
283.15 K, 15460 kPa | 749.321 ± 1.6 | 0.4306 ± 0.011
283.15 K, 21360 kPa | 754.612 ± 1.6 | 0.456 ± 0.011
293.15 K, 100 kPa | 723.318 ± 1.5 | 0.3311 ± 0.0088
293.15 K, 4470 kPa | 728.638 ± 1.5 | 0.3474 ± 0.0091
293.15 K, 9590 kPa | 734.393 ± 1.5 | 0.3671 ± 0.0096
293.15 K, 14750 kPa | 739.779 ± 1.5 | 0.3855 ± 0.0099
293.15 K, 20450 kPa | 745.301 ± 1.6 | 0.4079 ± 0.01
303.15 K, 100 kPa | 713.113 ± 1.5 | 0.299 ± 0.0081
303.15 K, 4440 kPa | 718.817 ± 1.5 | 0.3124 ± 0.0084
303.15 K, 9500 kPa | 725.014 ± 1.5 | 0.331 ± 0.0088
303.15 K, 14650 kPa | 730.787 ± 1.5 | 0.3496 ± 0.0092
303.15 K, 19650 kPa | 735.942 ± 1.5 | 0.3668 ± 0.0096
313.15 K, 100 kPa | 702.804 ± 1.5 | 0.2703 ± 0.0076
313.15 K, 4840 kPa | 709.502 ± 1.5 | 0.2869 ± 0.0079
313.15 K, 10140 kPa | 716.438 ± 1.5 | 0.3038 ± 0.0082
313.15 K, 15550 kPa | 722.843 ± 1.5 | 0.3213 ± 0.0086
313.15 K, 21490 kPa | 729.298 ± 1.5 | 0.3414 ± 0.009
323.15 K, 100 kPa | 692.225 ± 1.5 | 0.2468 ± 0.0071
323.15 K, 4760 kPa | 699.461 ± 1.5 | 0.2615 ± 0.0074
323.15 K, 10370 kPa | 707.408 ± 1.5 | 0.2776 ± 0.0077
323.15 K, 15480 kPa | 713.832 ± 1.5 | 0.2946 ± 0.008
323.15 K, 20780 kPa | 720.04 ± 1.5 | 0.311 ± 0.0084
333.15 K, 100 kPa | 681.435 ± 1.4 | 0.2254 ± 0.0067
333.15 K, 4750 kPa | 689.427 ± 1.5 | 0.2389 ± 0.0069
333.15 K, 10360 kPa | 697.963 ± 1.5 | 0.2554 ± 0.0073
333.15 K, 15670 kPa | 705.137 ± 1.5 | 0.2716 ± 0.0076
333.15 K, 20890 kPa | 711.63 ± 1.5 | 0.2848 ± 0.0078
343.15 K, 130 kPa | 670.401 ± 1.4 | 0.2064 ± 0.0063
343.15 K, 4390 kPa | 678.519 ± 1.4 | 0.2183 ± 0.0065
343.15 K, 9530 kPa | 687.069 ± 1.5 | 0.2335 ± 0.0068
343.15 K, 14740 kPa | 694.891 ± 1.5 | 0.2471 ± 0.0071
343.15 K, 21230 kPa | 703.496 ± 1.5 | 0.2649 ± 0.0074
353.15 K, 200 kPa | 659.151 ± 1.4 | 0.1889 ± 0.006
353.15 K, 4830 kPa | 668.72 ± 1.4 | 0.203 ± 0.0062
353.15 K, 10320 kPa | 678.629 ± 1.4 | 0.2176 ± 0.0065
353.15 K, 15760 kPa | 687.163 ± 1.4 | 0.2324 ± 0.0068
353.15 K, 21100 kPa | 694.71 ± 1.5 | 0.2466 ± 0.0071
363.15 K, 230 kPa | 647.498 ± 1.4 | 0.1736 ± 0.0057
363.15 K, 4730 kPa | 657.763 ± 1.4 | 0.1871 ± 0.006
363.15 K, 10170 kPa | 668.51 ± 1.4 | 0.2014 ± 0.0062
363.15 K, 15830 kPa | 678.192 ± 1.4 | 0.2152 ± 0.0065
363.15 K, 20860 kPa | 685.734 ± 1.4 | 0.2294 ± 0.0067
373.15 K, 310 kPa | 635.452 ± 1.4 | 0.1602 ± 0.0055
373.15 K, 4730 kPa | 646.883 ± 1.4 | 0.1721 ± 0.0057
373.15 K, 9630 kPa | 657.52 ± 1.4 | 0.1854 ± 0.0059
373.15 K, 15600 kPa | 668.559 ± 1.4 | 0.2008 ± 0.0062
373.15 K, 21680 kPa | 678.358 ± 1.4 | 0.2152 ± 0.0065
